Our source for the Activity values is ChEMBL document CHEMBL2424617, “Microwave-assisted synthesis and anticonvulsant activity of 5,6-bisaryl-1,2,4-triazine-3-thiol derivatives” (Med Chem Res, 2013).

Series [1] concerns Mus musculus. The series is described as follows: Neurotoxicity in NMRI mouse assessed as impairment of motor coordination at 100 mg/kg after 30 mins by chimney test. Particulars: in vivo, 0.5 h. In kind it is toxicity, organism-based. The arrangement: dose 100 mg/kg.
Series [2] concerns Mus musculus. Kind of series: Anticonvulsant activity in NMRI mouse assessed as […] of PTZ required to induce seizure at 100 mg/kg, ip after 30 mins (reference value: 31.5 +/- 4.4 mg/kg). The format is functional.
For series [3], the system named is Mus musculus. The series is described as follows: Anticonvulsant activity in NMRI mouse assessed as protection against electroshock-induced seizure at 100 mg/kg after 30 mins. The format is functional.
The subject of series [4] is Mus musculus. The series is described as follows: Neurotoxicity in NMRI mouse assessed as impairment of motor coordination at 100 mg/kg after 30 mins by rotarod test. In kind it is toxicity, organism-based. The arrangement: dose 100 mg/kg. The settings on record: in vivo, 0.5 h. Background: In the rotarod test animals must keep their balance on a rotating rod.
Series [5] concerns Mus musculus. Kind of series: Neurotoxicity in NMRI mouse assessed as impairment of motor coordination at 12.5 mg/kg, ip after 30 mins by rotarod test. In kind it is toxicity, organism-based. The arrangement: dose 12.5 mg/kg, route intraperitoneal. The settings on record: in vivo, 0.5 h.
The subject of series [6] is Mus musculus. Kind of series: Anticonvulsant activity in NMRI mouse assessed as protection against electroshock-induced seizure at 12.5 mg/kg, ip after 30 mins. Particulars: route intraperitoneal. The format is functional.
Series [7] deals with Mus musculus. The series is described as follows: Neurotoxicity in NMRI mouse assessed as impairment of motor coordination at 12.5 mg/kg, ip after 30 mins by chimney test. Also on record: dose 12.5 mg/kg, route intraperitoneal. The format is toxicity, organism-based. The settings on record: in vivo, 0.5 h.
Series [8] relates to Mus musculus. Kind of series: Anticonvulsant activity in NMRI mouse assessed as […] of PTZ required to induce seizure at 12.5 mg/kg, ip after 30 mins (reference value: 31.5 +/- 4.4 mg/kg). The format is functional.

Activity calls are given as the source filed them. The calls are words filed in the database; no cut-off is given here.

As for `Cc1ccc(-c2nnc(SCc3ccncc3)nc2-c2ccc(C)cc2)cc1`, the Activity result in series [1] is “Non-toxic”; in series [2], 49.4 mg/kg; in series [3], 100%; in series [4] it was “Non-toxic”.

For `Sc1nnc(-c2cccs2)c(-c2cccs2)n1`, the values for the Activity entry in series [1], in series [2] and in series [4] were “Non-toxic”, 24.42 mg/kg and “Non-toxic”, respectively.

For the compound `Clc1ccc(-c2nnc(SCc3ccncc3)nc2-c2ccc(Cl)cc2)cc1`, the Activity entry in series [1] is “Non-toxic”; in series [2], 43 mg/kg.

As to `COc1ccc(-c2nnc(S)nc2-c2ccc(OC)cc2)cc1`, the Activity entry in series [1] and in series [4] was “Non-toxic” each time. In addition, the outcome in series [3] was inactive.

On to `Cc1ccc(-c2nnc(SCc3cccnc3)nc2-c2ccc(C)cc2)cc1`, for which the values for the Activity result in series [1], in series [2] and in series [4] were “Non-toxic”, 47 mg/kg and “Non-toxic”, respectively.

Take `Nc1nnc(-c2cccc(Cl)c2Cl)c(N)n1` [LAMOTRIGINE]: the Activity result in series [5] was “Non-toxic”; in series [6] it was 100%; in series [7], “Non-toxic”; in series [8], 72.9 mg/kg.

On to `COc1ccc(-c2nnc(SCc3cccnc3)nc2-c2ccc(OC)cc2)cc1`, for which the figures for the Activity result in series [1], in series [2] and in series [4] were “Non-toxic”, 41.5 mg/kg and “Non-toxic”, respectively.

Regarding `Cc1ccc(-c2nnc(S)nc2-c2ccc(C)cc2)cc1`, the results for the Activity entry in series [1] and in series [2] were “Non-toxic” and 40.4 mg/kg, respectively.

On to `CSc1nnc(-c2ccc(F)cc2)c(-c2ccc(F)cc2)n1`, for which the Activity in series [1] is recorded as 33%; in series [4], “Non-toxic”.

Turning to `CSc1nnc(-c2ccc(C)cc2)c(-c2ccc(C)cc2)n1`, the Activity result in series [1] was “Non-toxic”; in series [2], 39.4 mg/kg; in series [4] it was “Non-toxic”.

Regarding `Sc1nnc(-c2ccc(Cl)cc2)c(-c2ccc(Cl)cc2)n1`, the Activity entry in series [1] and in series [4] was “Non-toxic” each time.

For the compound `CSc1nnc(-c2cccs2)c(-c2cccs2)n1`, the values for the Activity result in series [1], in series [2] and in series [4] were “Non-toxic”, 38.23 mg/kg and “Non-toxic”, respectively.

On to `COc1ccc(-c2nnc(SC)nc2-c2ccc(OC)cc2)cc1`, for which the Activity result in series [1] was “Non-toxic”; in series [2] it was 41.4 mg/kg; in series [4], “Non-toxic”.
